Among the data in PubChem BioAssay AID651874 (Southern Research Specialized Biocontainment Screening …, 2012) are IC50 values, retold here.

In this assay the test system is VEEV TrD infected cells, viral cytopathic effect inhibition. The assay is described as follows: VEEV TrD cytopathic effect inhibition, confirmation, cell-based, Trinidad donkey strain, set 2 (AID 651874).
Turning to `CCN1CCN(Cc2nc3ccc([N+](=O)[O-])cc3c(=O)n2-c2ccccc2F)CC1`, the half-maximal inhibitory concentration (IC50) is 0.557 µM.

Take `CNCCCN(C)Cc1nc2ccc([N+](=O)[O-])cc2c(=O)n1-c1ccccc1`: the IC50 is 0.405 µM.

With `CCN1CCN(C)CC1=Nc1ccc([N+](=O)[O-])cc1C(=O)Nc1ccccc1`, the 50% inhibitory concentration (IC50) is 0.034 µM.

As to `CCN1CCN(Cc2nc3ncc([N+](=O)[O-])cc3c(=O)n2-c2ccccc2)CC1`, the half-inhibitory concentration (IC50) is 3.08 µM.

As for `CN1CCN(C)C(=Nc2ccc([N+](=O)[O-])cc2C(=O)Nc2ccccc2)C1`, the IC50 was 0.0401 µM.

Consider `CCN1CCN(Cc2nc3ccc([N+](=O)[O-])cc3c(=O)n2-c2ccc(F)cc2)CC1`, for which the IC50 was 0.605 µM.

Consider `O=c1c2cc([N+](=O)[O-])ccc2nc(CN2CCNCC2)n1-c1ccccc1F`, for which the IC50 was 0.148 µM.

Turning to `O=c1c2cc([N+](=O)[O-])ccc2nc(CN2CCNCC2)n1-c1ccsc1`, the IC50 is 0.905 µM.

For the compound `CN1CCN(C)C(=Nc2ccc(C#N)cc2C(=O)Nc2ccccc2)C1`, the IC50 was 0.319 µM.

Consider `CN1CCN(Cc2nc3ccc([N+](=O)[O-])cc3c(=O)n2-c2ccccc2F)CC1`, for which the IC50 is 0.139 µM.

For the compound `O=c1c2cc([N+](=O)[O-])ccc2nc(CN2CCNCC2)n1-c1ccccc1`, the IC50 is 0.086 µM.

`COc1ccc(NC(=O)c2cc([N+](=O)[O-])ccc2N=C2CN(C)CCN2C)cc1`: the concentration for half-maximal inhibition (IC50) was 0.045 µM.

`CCN1CCN(Cc2nc3ccc(C#N)cc3c(=O)n2-c2ccccc2)CC1`: the IC50 was 1.09 µM.

As to `COc1ccc(-n2c(CN3CCNCC3)nc3ccc([N+](=O)[O-])cc3c2=O)cc1`, the IC50 was 0.0966 µM.

For the compound `CN1CCN(C)C(=Nc2ccc(C#N)cc2C(=O)Nc2cccc(F)c2)C1`, the concentration for half-maximal inhibition (IC50) was 0.823 µM.

Regarding `CN1CCN(C)C(=Nc2ccc([N+](=O)[O-])cc2C(=O)Nc2ccccc2F)C1`, the concentration for half-maximal inhibition (IC50) is 0.158 µM.

Regarding `CCN1CCN(Cc2nc3ccc([N+](=O)[O-])cc3c(=O)n2-c2cccc(F)c2)CC1`, the IC50 is 0.278 µM.

For `CCN1CCN(Cc2nc3ccc([N+](=O)[O-])cc3c(=O)n2-c2ccccc2)CC1`, the concentration for half-maximal inhibition (IC50) was 0.241 µM.

Take `COc1cccc(-n2c(CN3CCNCC3)nc3ccc([N+](=O)[O-])cc3c2=O)c1`: the half-maximal inhibitory concentration (IC50) was 5.63 µM.

`CN1CCN(C)C(=Nc2cc(Cl)c(C#N)cc2C(=O)Nc2ccccc2)C1`: the IC50 is 0.113 µM.
